Data published in ChEMBL document CHEMBL5113417, “Discovery of 4-(3-aminopyrrolidinyl)-3-aryl-5-(benzimidazol-2-yl)-pyridines as potent and selective SST5 agonists for the treatment of congenital hyperinsulinism” (Bioorg Med Chem Lett, 2022).
Each block holds one compound with its values, some of them ahead of it.

What was measured:
[1] = target: Somatostatin receptor type 5 (Homo sapiens, UniProt P35346); assay: Agonist activity at human SST5 expressed in CHO-K1 cells assessed as reduction in NKH477-induced intracellular cAMP level; assay type: functional, cell-based
Sequence of Somatostatin receptor type 5 (Homo sapiens, UniProt P35346) (P35346 whole entry): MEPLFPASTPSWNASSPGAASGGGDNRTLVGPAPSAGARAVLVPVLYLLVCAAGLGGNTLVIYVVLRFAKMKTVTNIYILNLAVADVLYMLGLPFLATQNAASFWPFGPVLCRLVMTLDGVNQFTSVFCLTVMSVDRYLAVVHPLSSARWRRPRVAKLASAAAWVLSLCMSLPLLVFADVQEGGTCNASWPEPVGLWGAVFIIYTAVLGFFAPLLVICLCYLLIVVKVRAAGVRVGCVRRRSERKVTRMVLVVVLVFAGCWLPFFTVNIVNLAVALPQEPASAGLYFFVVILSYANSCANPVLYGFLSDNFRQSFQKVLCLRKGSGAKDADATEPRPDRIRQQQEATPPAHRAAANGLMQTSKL

[2] = Metabolic stability in human liver microsomes assessed as intrinsic clearance; assay type: ADME, Microsome
[3] = Metabolic stability in rat liver microsomes assessed as intrinsic clearance; assay type: ADME, Microsome
[4] = Half life in Sprague-Dawley rat at 2.5 mg/kg, iv; assay type: ADME, organism-based; conditions: in vivo
[5] = Volume of distribution at steady state in Sprague-Dawley rat at 2.5 mg/kg, iv; assay type: ADME, organism-based; conditions: in vivo
[6] = Cmax in Sprague-Dawley rat at 10 mg/kg, po; assay type: ADME, organism-based; design: dose 10 mg/kg, route po; conditions: in vivo
[7] = AUC(0 to infinity) in Sprague-Dawley rat at 10 mg/kg, po; assay type: ADME, organism-based; design: time infinity, dose 10 mg/kg, route po; conditions: in vivo
[8] = Oral bioavailability in Sprague-Dawley rat at 10 mg/kg; assay type: ADME, organism-based; conditions: in vivo
[9] = target: T1, Cytochrome P450 2D6 (Homo sapiens, UniProt P10635); assay: Time dependent inhibition of CYP2D6 (unknown origin); assay type: ADME
T1 sequence (P10635 whole entry): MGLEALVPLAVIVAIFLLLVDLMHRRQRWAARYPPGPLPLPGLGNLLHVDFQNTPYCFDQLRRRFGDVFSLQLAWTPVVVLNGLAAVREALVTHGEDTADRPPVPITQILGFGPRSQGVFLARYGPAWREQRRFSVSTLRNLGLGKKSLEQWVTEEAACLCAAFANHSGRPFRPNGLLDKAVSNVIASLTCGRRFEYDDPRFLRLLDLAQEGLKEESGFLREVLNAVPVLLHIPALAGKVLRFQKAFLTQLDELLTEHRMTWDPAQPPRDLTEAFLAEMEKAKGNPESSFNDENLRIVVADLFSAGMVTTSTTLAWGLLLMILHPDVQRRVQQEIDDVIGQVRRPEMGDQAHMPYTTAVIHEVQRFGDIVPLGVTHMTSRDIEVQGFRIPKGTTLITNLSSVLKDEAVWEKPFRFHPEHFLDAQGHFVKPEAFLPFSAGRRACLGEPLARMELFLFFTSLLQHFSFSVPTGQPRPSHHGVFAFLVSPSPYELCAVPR

[10] = target: T1, Cytochrome P450 2D6; assay: Time dependent inhibition of CYP2D6 (unknown origin) preincubated for 30 mins; assay type: ADME
[11] = target: Somatostatin receptor type 1 (Homo sapiens, UniProt P30872); assay: Agonist activity at human SST1; assay type: functional
Sequence of Somatostatin receptor type 1 (P30872 whole entry): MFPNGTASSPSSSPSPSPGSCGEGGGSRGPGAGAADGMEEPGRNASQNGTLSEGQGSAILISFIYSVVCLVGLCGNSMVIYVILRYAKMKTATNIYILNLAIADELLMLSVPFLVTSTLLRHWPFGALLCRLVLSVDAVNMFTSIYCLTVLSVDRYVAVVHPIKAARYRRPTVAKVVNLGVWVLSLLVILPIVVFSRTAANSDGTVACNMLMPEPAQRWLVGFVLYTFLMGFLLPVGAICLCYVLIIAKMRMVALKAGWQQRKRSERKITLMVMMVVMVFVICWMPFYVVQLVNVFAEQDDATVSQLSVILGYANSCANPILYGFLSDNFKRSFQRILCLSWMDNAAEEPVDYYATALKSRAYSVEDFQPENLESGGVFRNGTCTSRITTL

[12] = target: Somatostatin receptor type 2 (Homo sapiens, UniProt P30874); assay: Agonist activity at human SST2; assay type: functional
Sequence of Somatostatin receptor type 2 (P30874 whole entry): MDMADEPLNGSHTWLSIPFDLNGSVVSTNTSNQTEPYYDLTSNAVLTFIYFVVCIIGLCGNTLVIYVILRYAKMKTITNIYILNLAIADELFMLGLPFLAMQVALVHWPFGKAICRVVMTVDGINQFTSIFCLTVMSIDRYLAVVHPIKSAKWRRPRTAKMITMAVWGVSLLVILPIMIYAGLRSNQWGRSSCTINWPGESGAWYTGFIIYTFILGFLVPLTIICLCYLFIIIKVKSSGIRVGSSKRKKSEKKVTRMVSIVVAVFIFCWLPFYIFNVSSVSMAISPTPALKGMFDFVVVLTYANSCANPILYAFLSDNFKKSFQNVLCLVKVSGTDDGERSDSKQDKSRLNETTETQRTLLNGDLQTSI

[13] = target: Somatostatin receptor type 3 (Homo sapiens, UniProt P32745); assay: Agonist activity at human SST3; assay type: functional
Sequence of Somatostatin receptor type 3 (P32745 whole entry): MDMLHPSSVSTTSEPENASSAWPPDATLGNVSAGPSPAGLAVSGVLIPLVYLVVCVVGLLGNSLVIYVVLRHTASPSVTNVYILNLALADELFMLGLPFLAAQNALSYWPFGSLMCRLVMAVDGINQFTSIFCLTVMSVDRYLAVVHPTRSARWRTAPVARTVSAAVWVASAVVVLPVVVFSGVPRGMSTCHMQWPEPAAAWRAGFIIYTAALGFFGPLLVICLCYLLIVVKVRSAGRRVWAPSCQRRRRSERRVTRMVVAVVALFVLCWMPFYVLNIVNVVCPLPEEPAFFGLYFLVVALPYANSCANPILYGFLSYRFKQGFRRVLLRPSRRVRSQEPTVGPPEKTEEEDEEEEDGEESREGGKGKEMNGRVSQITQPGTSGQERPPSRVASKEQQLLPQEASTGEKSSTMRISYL

[14] = target: Somatostatin receptor type 4 (Homo sapiens, UniProt P31391); assay: Agonist activity at human SST4; assay type: functional
Sequence of Somatostatin receptor type 4 (P31391 whole entry): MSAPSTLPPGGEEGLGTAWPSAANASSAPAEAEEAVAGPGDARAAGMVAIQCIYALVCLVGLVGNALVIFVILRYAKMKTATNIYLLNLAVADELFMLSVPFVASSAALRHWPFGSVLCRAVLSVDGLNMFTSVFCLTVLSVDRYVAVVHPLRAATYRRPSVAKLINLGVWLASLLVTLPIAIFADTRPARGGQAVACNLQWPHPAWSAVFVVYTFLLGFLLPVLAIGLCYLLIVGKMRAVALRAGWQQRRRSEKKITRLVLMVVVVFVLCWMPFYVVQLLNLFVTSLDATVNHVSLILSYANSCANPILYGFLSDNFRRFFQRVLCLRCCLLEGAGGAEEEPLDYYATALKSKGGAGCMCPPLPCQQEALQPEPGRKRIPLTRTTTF

[15] = target: Somatostatin receptor type 5 (Rattus norvegicus, UniProt P30938); assay: Agonist activity at rat SST5; assay type: functional
Sequence of Somatostatin receptor type 5 (Rattus norvegicus, UniProt P30938) (P30938 whole entry, looked up): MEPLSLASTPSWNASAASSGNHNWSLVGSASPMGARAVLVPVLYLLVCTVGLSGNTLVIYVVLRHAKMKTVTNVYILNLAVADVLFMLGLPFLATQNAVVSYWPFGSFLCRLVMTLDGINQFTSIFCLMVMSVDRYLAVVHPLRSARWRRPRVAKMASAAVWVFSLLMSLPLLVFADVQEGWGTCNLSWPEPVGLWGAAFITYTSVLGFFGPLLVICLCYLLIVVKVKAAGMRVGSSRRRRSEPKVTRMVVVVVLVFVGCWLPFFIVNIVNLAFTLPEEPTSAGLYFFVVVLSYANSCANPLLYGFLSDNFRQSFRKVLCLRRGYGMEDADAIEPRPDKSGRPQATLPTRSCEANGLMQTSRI

[16] = target: Voltage-gated inwardly rectifying potassium channel KCNH2 (Homo sapiens, UniProt Q12809); assay: Inhibition of hERG by patch clamp assay; assay type: toxicity
[17] = target: T1, Cytochrome P450 2D6; assay: Inhibition of CYP2D6 (unknown origin); assay type: ADME
[18] = target: T1, Cytochrome P450 2D6; assay: Inhibition of CYP2D6 (unknown origin) preincubated for 30 mins; assay type: ADME
[19] = target: T2, Cytochrome P450 3A4 (Homo sapiens, UniProt P08684); assay: Inhibition of CYP3A4 (unknown origin); assay type: ADME
T2 sequence (P08684 whole entry): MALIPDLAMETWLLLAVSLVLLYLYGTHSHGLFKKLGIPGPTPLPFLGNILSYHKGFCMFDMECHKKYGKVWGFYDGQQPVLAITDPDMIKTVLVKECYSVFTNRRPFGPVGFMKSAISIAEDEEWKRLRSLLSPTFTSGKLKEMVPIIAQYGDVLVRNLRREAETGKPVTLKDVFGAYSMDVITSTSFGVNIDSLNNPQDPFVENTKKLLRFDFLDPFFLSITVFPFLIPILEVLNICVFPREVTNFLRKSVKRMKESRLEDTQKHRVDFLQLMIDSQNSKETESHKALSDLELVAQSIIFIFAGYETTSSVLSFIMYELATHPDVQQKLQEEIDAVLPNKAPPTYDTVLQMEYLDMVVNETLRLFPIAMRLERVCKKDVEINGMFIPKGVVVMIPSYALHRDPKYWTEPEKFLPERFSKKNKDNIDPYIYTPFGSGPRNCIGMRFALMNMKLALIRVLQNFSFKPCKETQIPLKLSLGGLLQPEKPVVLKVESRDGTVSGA

[20] = target: T2, Cytochrome P450 3A4; assay: Inhibition of CYP3A4 (unknown origin) preincubated for 30 mins; assay type: ADME
[21] = target: Cytochrome P450 2C9 (Homo sapiens, UniProt P11712); assay: Inhibition of CYP2C9 (unknown origin) by fluorescent assay; assay type: ADME
Sequence of Cytochrome P450 2C9 (P11712 whole entry): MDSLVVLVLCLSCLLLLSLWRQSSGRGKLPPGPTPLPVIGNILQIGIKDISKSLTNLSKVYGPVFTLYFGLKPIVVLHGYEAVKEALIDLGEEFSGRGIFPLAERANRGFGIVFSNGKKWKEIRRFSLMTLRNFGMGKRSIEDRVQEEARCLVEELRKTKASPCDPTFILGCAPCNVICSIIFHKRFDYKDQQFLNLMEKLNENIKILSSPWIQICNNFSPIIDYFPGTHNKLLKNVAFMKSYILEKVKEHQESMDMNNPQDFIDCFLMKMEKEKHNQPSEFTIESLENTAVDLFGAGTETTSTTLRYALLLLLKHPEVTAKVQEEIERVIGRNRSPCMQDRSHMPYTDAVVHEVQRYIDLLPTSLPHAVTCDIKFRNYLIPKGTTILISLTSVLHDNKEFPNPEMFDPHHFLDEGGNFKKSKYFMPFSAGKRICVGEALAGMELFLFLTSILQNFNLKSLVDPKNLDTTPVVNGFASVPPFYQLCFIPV

[22] = target: Cytochrome P450 2C19 (Homo sapiens, UniProt P33261); assay: Inhibition of CYP2C19 (unknown origin) by fluorescent assay; assay type: ADME
Sequence of Cytochrome P450 2C19 (P33261 whole entry): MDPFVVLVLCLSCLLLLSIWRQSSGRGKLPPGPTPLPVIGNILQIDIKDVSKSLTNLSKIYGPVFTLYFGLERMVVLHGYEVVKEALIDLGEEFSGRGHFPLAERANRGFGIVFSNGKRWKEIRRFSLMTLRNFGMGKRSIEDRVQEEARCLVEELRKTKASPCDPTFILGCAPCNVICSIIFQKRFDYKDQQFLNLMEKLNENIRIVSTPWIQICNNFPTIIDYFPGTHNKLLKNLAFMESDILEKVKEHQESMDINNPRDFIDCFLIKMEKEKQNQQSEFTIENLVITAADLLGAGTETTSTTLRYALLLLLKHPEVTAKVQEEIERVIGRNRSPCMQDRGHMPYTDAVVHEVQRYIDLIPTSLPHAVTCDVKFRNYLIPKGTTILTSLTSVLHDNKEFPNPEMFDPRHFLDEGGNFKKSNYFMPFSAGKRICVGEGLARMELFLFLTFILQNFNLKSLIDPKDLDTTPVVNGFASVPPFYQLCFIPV

[23] = Metabolic stability in human liver microsomes assessed as half life; assay type: ADME, Microsome
[24] = Metabolic stability in rat liver microsomes assessed as half life; assay type: ADME, Microsome
[25] = Metabolic stability in dog liver microsomes assessed as half life; assay type: ADME, Canis lupus familiaris, Microsome
[26] = Metabolic stability in monkey liver microsomes assessed as half life; assay type: ADME, Macaca mulatta, Microsome; conditions: rhesus monkey
[27] = Metabolic stability in monkey liver microsomes assessed as intrinsic clearance; assay type: ADME, Macaca mulatta, Microsome; conditions: rhesus monkey
[28] = Half life in Sprague-Dawley rat at 5 mg/kg, iv; assay type: ADME, organism-based; conditions: in vivo
[29] = Half life in Beagle dog at 2.5 mg/kg, iv; assay type: ADME, organism-based, Canis lupus familiaris; conditions: in vivo
[30] = Volume of distribution at steady state in Sprague-Dawley rat at 5 mg/kg, iv; assay type: ADME, organism-based; conditions: in vivo
[31] = Volume of distribution at steady state in Beagle dog at 2.5 mg/kg, iv; assay type: ADME, organism-based, Canis lupus familiaris; conditions: in vivo
[32] = Cmax in Beagle dog at 5 mg/kg, po; assay type: ADME, organism-based, Canis lupus familiaris; design: dose 5 mg/kg, route po; conditions: in vivo
[33] = AUC(0 to infinity) in Beagle dog at 5 mg/kg, po; assay type: ADME, organism-based, Canis lupus familiaris; design: time infinity, dose 5 mg/kg, route po; conditions: in vivo
[34] = Oral bioavailability in Beagle dog at 5 mg/kg; assay type: ADME, organism-based, Canis lupus familiaris; conditions: in vivo

SMILES: N#Cc1cccc(-c2cncc(-c3nc4c(F)cc(F)cc4[nH]3)c2N2CC(CN)C2)c1
EC50 [1]: 2.6 nM

SMILES: NCC1CN(c2c(-c3nc4c(F)cc(F)cc4[nH]3)cncc2-c2ccccc2F)C1
EC50 [1]: 400 nM

SMILES: N#Cc1cccc(-c2cncc(-c3nc4c(F)cccc4[nH]3)c2N2C[C@@H](N)[C@H](O)C2)c1 (racemic)
EC50 [1]: 46 nM

SMILES: Cc1cc(F)cc(-c2cncc(-c3nc4c(F)cc(F)cc4[nH]3)c2N2CC(CN)C2)c1
EC50 [1]: 2.2 nM

SMILES: Cc1cccc(-c2cncc(-c3nc4c(F)cc(F)cc4[nH]3)c2N2CC(CN)C2)c1
EC50 [1]: 2.3 nM

CLH [2]: 10 mL/min/g | CLH [3]: 14 mL/min/g | t1/2 [4]: 7.1 min | Vdss [5]: 22 L/kg | Cmax [6]: 181 ng/mL | AUC(0-inf) [7]: 2480 ng·h/mL | bioavailability [8]: 74% | IC50 [9]: 400 nM | IC50 [10]: 90 nM
SMILES: N[C@H]1CCN(c2c(-c3cc(F)cc(Cl)c3)cncc2-c2nc3c(F)cccc3[nH]2)C1

SMILES: Cc1cc(F)cc(-c2cncc(-c3nc4c(Cl)cccc4[nH]3)c2N2CC(CN)C2)c1
EC50 [1]: 1.2 nM

SMILES: N#Cc1cccc(-c2cncc(-c3nc4c(F)cccc4[nH]3)c2N2CCC(N)(CO)C2)c1 (stereo not drawn)
EC50 [1]: 1 nM

SMILES: Cc1cc(F)cc(-c2cncc(-c3nc4c(F)cc(F)cc4[nH]3)c2N2CC(C)(CN)C2)c1
EC50 [1]: 2.3 nM

SMILES: CC(N)C1CN(c2c(-c3cc(F)cc(C(F)(F)F)c3)cncc2-c2nc3c(F)cc(F)cc3[nH]2)C1 (stereo not drawn)
EC50 [1]: 0.27 nM

SMILES: NCC1CN(c2c(-c3cccc(Cl)c3)cncc2-c2nc3c(F)cc(F)cc3[nH]2)C1
EC50 [1]: 0.36 nM

SMILES: Cc1cc(F)cc2[nH]c(-c3cncc(-c4cc(F)cc(C#N)c4)c3N3CC[C@H](N)C3)nc12
EC50 [1]: 2.1 nM

SMILES: Cc1ccc(F)c2[nH]c(-c3cncc(-c4cc(F)cc(C#N)c4)c3N3CC[C@H](N)C3)nc12
EC50 [1]: 0.23 nM | EC50 [11]: > 1000 nM | pEC50 [11]: < 6 | EC50 ([12]; read-out: pEC50 (converted)): 251 nM | EC50 [13]: 10 nM | EC50 [14]: 3.98 nM | EC50 [15]: 0.31 nM | IC50 [16]: 280 nM | IC50 [17]: 5300 nM | IC50 [18]: 4000 nM | IC50 [19]: > 10000 nM | IC50 [20]: > 10000 nM

SMILES: Cc1cccc2c1nc(-c1cncc(-c3cc(F)cc(C#N)c3)c1N1CC[C@H](N)C1)n2C
EC50 [1]: 4.2 nM

SMILES: N#Cc1cccc(-c2cncc(-c3nc4c(F)cccc4[nH]3)c2N2CC(N)C(C(F)(F)F)C2)c1 (mixture of isomers)
EC50 [1]: 42 nM

SMILES: N#Cc1cc(-c2cncc(-c3nc4c(F)cccc4[nH]3)c2N2CC[C@H](N)C2)ccc1F
EC50 [1]: 0.62 nM

EC50 ([12]; read-out: EC50): > 1000 nM
SMILES: Cc1cc(F)cc(-c2cncc(-c3nc4cc(F)ccc4[nH]3)c2N2CC(CN)C2)c1

SMILES: Cc1c(F)ccc2[nH]c(-c3cncc(-c4cc(F)cc(C#N)c4)c3N3CC[C@H](N)C3)nc12
EC50 [1]: 0.65 nM

EC50 [1]: 6.1 nM
SMILES: NCC1CN(c2c(-c3cccc(F)c3)cncc2-c2nc3c(F)cc(F)cc3[nH]2)C1

CLH [2]: 2 mL/min/g | CLH [3]: 2 mL/min/g | Cmax [6]: 78 ng/mL | AUC(0-inf) [7]: 951 ng·h/mL | bioavailability [8]: 33% | EC50 [15]: […] | IC50 [21]: > 10000 nM | IC50 [22]: > 10000 nM | IC50 [17]: 10000 nM | IC50 [18]: 7500 nM | IC50 [19]: > 10000 nM | IC50 [20]: > 10000 nM | half-life [23]: > 693 min | half-life [24]: > 693 min | half-life [25]: […] | half-life [26]: […] | CLH [27]: 94.3 mL/min/g | t1/2 [28]: […] | t1/2 [29]: 16.9 min | Vdss [30]: 17 L/kg | Vdss [31]: 12.9 L/kg | Cmax [32]: 324 ng/mL | AUC(0-inf) [33]: 4660 ng·h/mL | bioavailability [34]: 55%
SMILES: Cc1cccc2[nH]c(-c3cncc(-c4cc(F)cc(C#N)c4)c3N3CC[C@H](N)C3)nc12

SMILES: N#Cc1cccc(-c2cncc(-c3nc4c(F)cccc4[nH]3)c2N2CC[C@H](N)C2)c1
EC50 [1]: 0.55 nM

SMILES: CC1(N)CCN(c2c(-c3cccc(C#N)c3)cncc2-c2nc3c(F)cccc3[nH]2)C1 (stereo not drawn)
EC50 [1]: 0.071 nM

SMILES: N#Cc1ccc(-c2cncc(-c3nc4c(F)cccc4[nH]3)c2N2CC[C@H](N)C2)cc1F
EC50 [1]: 45 nM

SMILES: Cc1cc(F)cc(-c2cncc(-c3nc4c(C#N)cccc4[nH]3)c2N2CC(CN)C2)c1
EC50 [1]: 19 nM

SMILES: C[C@]1(N)CCN(c2c(-c3cccc(C#N)c3)cncc2-c2nc3c(F)cccc3[nH]2)C1
EC50 [1]: 0.047 nM
